The results in this text go back to PMC7586336 (Journal of Medicinal Chemistry, 2020).

Structures are written as SMILES. ≈ marks a conversion by molar mass, not a printed value.

Data set [1] concerns P. aeruginosa PA14 wt. Briefly: Antibiotic susceptibility. The data set is classed as cell-based, Pseudomonas aeruginosa.
The subject of data set [2] is E. coli DSM 1116. Briefly: Antibiotic susceptibility. In kind it is cell-based. The settings on record: Escherichia coli, DSM1116.
Data set [3] relates to P. aeruginosa PAO1 wt. Briefly: Antibiotic susceptibility. The data set is classed as cell-based, Pseudomonas aeruginosa.
The subject of data set [4] is P. aeruginosa PA14 ΔlecB. Nature of the data set: Antibiotic susceptibility. In kind it is cell-based. The settings on record: Pseudomonas aeruginosa.
The test system of data set [5] is E. coli K12 MG1655. Nature of the data set: Antibiotic susceptibility. In kind it is cell-based. The following applies: Escherichia coli.
Data set [6] has as its target E. coli gyrase (Escherichia coli, UniProt P0AES4+P0AES6). In kind it is biochemical.
For data set [7], the system named is P. aeruginosa PA14 ΔlecA. Nature of the data set: Antibiotic susceptibility. The settings on record: Pseudomonas aeruginosa. In kind it is cell-based.
In data set [8] the test system is Calu-3 HTB-55. Nature of the data set: Cell permeability, Transwell system. The data set is classed as in vitro ADME, human. The following applies: after 4 h, data not shown.
For data set [9], the system named is HEK293 cells. Nature of the data set: Cytotoxicity. The following applies: HEK 293 and A549, 100 μM, 48 h incubation. The data set is classed as cell-based, human.
A short description of data set [10]: Microsomal stability, mouse liver microsomes. The data set is classed as in vitro ADME. The settings on record: one experiment.
The nature of data set [11]: Microsomal stability, human liver microsomes. The data set is classed as in vitro ADME. The following applies: one experiment. A general note: Microsomes from liver hold many membrane-bound enzymes, among them those of drug oxidation.
The subject of data set [12] is A549 cells. Nature of the data set: Cytotoxicity. In kind it is cell-based, human. The following applies: 48 h, MTT.
[13] abbreviates: P. aeruginosa PA14 wt + 1 μg/mL PMBN.
Setting [14] is: P. aeruginosa PAO1 wt + 1 μg/mL PMBN.

What is called MIC is the lowest concentration found to suppress growth.

E. coli gyrase, sequence (P0AES4 whole entry, one chain of several): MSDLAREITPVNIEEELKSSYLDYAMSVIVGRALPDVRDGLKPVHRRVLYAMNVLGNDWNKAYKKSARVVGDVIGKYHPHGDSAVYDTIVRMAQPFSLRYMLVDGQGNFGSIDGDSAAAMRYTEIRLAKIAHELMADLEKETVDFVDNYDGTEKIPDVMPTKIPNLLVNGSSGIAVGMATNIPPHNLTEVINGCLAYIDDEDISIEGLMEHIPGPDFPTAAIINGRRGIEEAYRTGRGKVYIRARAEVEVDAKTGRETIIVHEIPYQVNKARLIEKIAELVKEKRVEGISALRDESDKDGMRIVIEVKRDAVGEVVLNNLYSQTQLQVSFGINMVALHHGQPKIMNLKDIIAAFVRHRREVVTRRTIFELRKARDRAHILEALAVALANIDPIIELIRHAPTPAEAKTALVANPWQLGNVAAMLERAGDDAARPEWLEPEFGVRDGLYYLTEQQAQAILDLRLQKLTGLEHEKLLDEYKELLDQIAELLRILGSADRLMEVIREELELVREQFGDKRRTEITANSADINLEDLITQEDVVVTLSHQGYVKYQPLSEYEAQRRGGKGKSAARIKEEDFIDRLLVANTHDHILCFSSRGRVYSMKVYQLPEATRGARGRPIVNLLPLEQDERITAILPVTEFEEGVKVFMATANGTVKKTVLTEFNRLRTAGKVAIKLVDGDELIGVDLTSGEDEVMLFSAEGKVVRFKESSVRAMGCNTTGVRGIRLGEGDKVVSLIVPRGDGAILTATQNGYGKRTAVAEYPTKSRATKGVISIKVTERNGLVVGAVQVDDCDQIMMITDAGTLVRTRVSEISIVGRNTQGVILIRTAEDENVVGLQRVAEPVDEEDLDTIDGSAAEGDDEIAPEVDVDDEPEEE

Turning to `O=C(CCCCn1cc(CCN2CCN(c3cc4c(cc3F)c(=O)c(C(=O)O)cn4C3CC3)CC2)nn1)Nc1ccc(S[C@@H]2O[C@H](CO)[C@H](O)[C@H](O)[C@H]2O)cc1` [compound 29], the figures for the MIC in [1] (setting [13]), in [2] and in data set [3] (setting [14]) were 32 to 64 µg/mL, 4 to 32 µg/mL (≈ 5.03 to 40.2 µM) and 32 to 64 µg/mL, respectively.

`O=C(CCCCn1cc(CN2CCN(c3cc4c(cc3F)c(=O)c(C(=O)O)cn4C3CC3)CC2)nn1)Nc1ccc(S[C@@H]2O[C@H](CO)[C@H](O)[C@H](O)[C@H]2O)cc1` [compound 28]: the MIC was in the range of 2 to 8 µg/mL in [1] (setting [13]); 32 to 64 µg/mL (≈ 40.9 to 81.9 µM) in data set [4]; 4 to 32 µg/mL (≈ 5.12 to 40.9 µM) in data set [2]; 8 to 16 µg/mL in [3] (setting [14]); 32 to 64 µg/mL (≈ 40.9 to 81.9 µM) in [3] (Pseudomonas aeruginosa, PAO1); 2 to 4 µg/mL (≈ 2.56 to 5.12 µM) in data set [5].

With `O=C(Cn1cc(CCN2CCN(c3cc4c(cc3F)c(=O)c(C(=O)O)cn4C3CC3)CC2)nn1)Nc1ccc(S[C@@H]2O[C@H](CO)[C@H](O)[C@H](O)[C@H]2O)cc1` [compound 23], the minimal inhibitory concentration (MIC) was 16 to 64 µg/mL in data set [1] (setting [13]), 32 to 64 µg/mL in data set [3] (setting [14]) and 8 to 16 µg/mL (≈ 10.6 to 21.2 µM) in data set [5].

For `C#CCN1CCN(c2cc3c(cc2F)c(=O)c(C(=O)O)cn3C2CC2)CC1` [compound 20, N-Propargyl-ciprofloxacin], the MIC in [1] (setting [13]) lay within 0.025 to 0.5 µg/mL; in [1] (Pseudomonas aeruginosa, PA14), 2 to 4 µg/mL (≈ 5.41 to 10.8 µM); in data set [7], 4 to 8 µg/mL (≈ 10.8 to 21.7 µM); in data set [3] (setting [14]) it was 1 to 2 µg/mL; in data set [3] (Pseudomonas aeruginosa, PAO1), 4 to 8 µg/mL (≈ 10.8 to 21.7 µM). For the same compound, the “factor of decrease in gyrase inhibitory concentration compared to 3” value in data set [6] is given as 3.5.

Regarding `O=C(CCCn1cc(CCN2CCN(c3cc4c(cc3F)c(=O)c(C(=O)O)cn4C3CC3)CC2)nn1)Nc1ccc(S[C@@H]2O[C@H](CO)[C@H](O)[C@H](O)[C@H]2O)cc1` [compound 27], the MIC fell in the range of 32 to 64 µg/mL in data set [1] (setting [13]), 4 to 32 µg/mL (≈ 5.12 to 40.9 µM) in [2] and 32 to 64 µg/mL in data set [3] (setting [14]).

As to `O=C(CCn1cc(CCN2CCN(c3cc4c(cc3F)c(=O)c(C(=O)O)cn4C3CC3)CC2)nn1)Nc1ccc(S[C@@H]2O[C@H](CO)[C@H](O)[C@H](O)[C@H]2O)cc1` [compound 25], the minimal inhibitory concentration (MIC) in [1] (setting [13]) and in data set [3] (setting [14]) was 32 to 64 µg/mL in each case.

With `O=C(CCCn1cc(CN2CCN(c3cc4c(cc3F)c(=O)c(C(=O)O)cn4C3CC3)CC2)nn1)Nc1ccc(S[C@@H]2O[C@H](CO)[C@H](O)[C@H](O)[C@H]2O)cc1` [compound 26], the MIC was in the range of 8 to 16 µg/mL (≈ 10.4 to 20.8 µM) in data set [1] (Pseudomonas aeruginosa, PA14); 8 to 16 µg/mL (≈ 10.4 to 20.8 µM) in data set [4]; 8 to 16 µg/mL (≈ 10.4 to 20.8 µM) in data set [7]; 2 to 32 µg/mL (≈ 2.6 to 41.7 µM) in data set [2]; 4 to 8 µg/mL in data set [3] (setting [14]); 16 to 32 µg/mL (≈ 20.8 to 41.7 µM) in data set [3] (Pseudomonas aeruginosa, PAO1). The MIC in [5] was in the range of 1 to 2 µg/mL (≈ 1.3 to 2.6 µM).

`O=C(Cn1cc(CN2CCN(c3cc4c(cc3F)c(=O)c(C(=O)O)cn4C3CC3)CC2)nn1)Nc1ccc(S[C@@H]2O[C@H](CO)[C@H](O)[C@H](O)[C@H]2O)cc1` [compound 22]: the MIC in [1] (setting [13]) lay within 4 to 16 µg/mL; in data set [4] it was 16 to 32 µg/mL (≈ 21.6 to 43.3 µM); in data set [7] it was 16 to 32 µg/mL (≈ 21.6 to 43.3 µM); in data set [2], 2 to 4 µg/mL (≈ 2.7 to 5.41 µM); in [3] (setting [14]), 4 to 8 µg/mL; in [3] (Pseudomonas aeruginosa, PAO1), 16 to 32 µg/mL (≈ 21.6 to 43.3 µM). Also, in data set [8], the “permeation (apical to basal) over Calu-3 HTB-55 cells” value is “No detectable permeation”. Moreover, the “acute cytotoxicity (in words)” value in data set [9] is recorded as “no cytotoxicity”. Also, the “metabolic stability CLMIC MLM” value in data set [10] was 10 μL/min/mg protein. Besides, in data set [11], the “metabolic stability CLMIC HLM” value is given as 10 μL/min/mg protein.

With `C[C@@H]1O[C@H](CNS(=O)(=O)c2ccc(CCn3cc(CN4CCN(c5cc6c(cc5F)c(=O)c(C(=O)O)cn6C5CC5)CC4)nn3)s2)[C@@H](O)[C@H](O)[C@@H]1O` [compound 30], in data set [8], the “permeation (apical to basal) over Calu-3 HTB-55 cells” value is “No detectable permeation”. Moreover, in data set [12], the “cytotoxicity @ 100 μM A549” value is “–9 ± 15 % inhibition”. Also, in [9], the “acute cytotoxicity (in words)” value was “no cytotoxicity”. For the same compound, the “metabolic stability CLMIC MLM” value in data set [10] is 10 μL/min/mg protein. In addition, the MIC in [2] lay within 16 to 32 µg/mL (≈ 21 to 42 µM); in data set [3] (setting [14]), 32 to 64 µg/mL; in [5], 8 to 16 µg/mL (≈ 10.5 to 21 µM). The “metabolic stability CLMIC HLM” value in [11] was 15 μL/min/mg protein.

On to `O=C(CCn1cc(CN2CCN(c3cc4c(cc3F)c(=O)c(C(=O)O)cn4C3CC3)CC2)nn1)Nc1ccc(S[C@@H]2O[C@H](CO)[C@H](O)[C@H](O)[C@H]2O)cc1` [compound 24], for which the MIC in data set [1] (setting [13]) fell in the range of 8 to 16 µg/mL; in [1] (Pseudomonas aeruginosa, PA14), 8 to 16 µg/mL (≈ 10.6 to 21.2 µM); in data set [4], 8 to 32 µg/mL (≈ 10.6 to 42.5 µM); in data set [7] it was 8 to 16 µg/mL (≈ 10.6 to 21.2 µM); in [2], 2 to 4 µg/mL (≈ 2.65 to 5.31 µM); in [3] (setting [14]), 4 to 8 µg/mL.

Turning to `O=C(O)c1cn(C2CC2)c2cc(N3CCNCC3)c(F)cc2c1=O` [compound 3, ciprofloxacin, reference compound], the minimum inhibitory concentration (MIC) was in the range of 0.05 to 0.08 µg/mL (≈ 0.151 to 0.241 µM) in data set [4]; 0.05 to 0.08 µg/mL (≈ 0.151 to 0.241 µM) in [7]; 0.025 to 0.08 µg/mL (≈ 0.0754 to 0.241 µM) in [3] (Pseudomonas aeruginosa, PAO1).
